The source of these data is PMC4287973, “Tumor cell-specific inhibition of MYC function using small molecule inhibitors of the HUWE1 ubiquitin ligase” (EMBO Molecular Medicine, 2014).

Each structure is given as a SMILES string.

One assay has as its system Ls174T cells. Put plainly: Colony formation assay of Ls174T cells. The following applies: Homo sapiens, 120 h, stained after 5 days, read-out: estimated IC50 colony formation. The format is cell-based. As for the experimental part: Partial shRNA-mediated depletion of HUWE1 led to a moderate, but highly significant reduction in IC50 value for growth inhibition by BI8622, arguing that growth inhibition is an on-target effect of the inhibitor (Supplementary Fig S6). […] Incubation with either compound retarded passage of Ls174T cells through all phases of the cell cycle, with the effect being strongest for G1. In contrast to colon carcinoma cells, HUWE1 is not required for proliferation of embryonic stem (ES) cells and deletion of HUWE1 instead delays the decrease of N-MYC levels that occurs upon removal of leukemia inhibitory factor (LIF) from the medium (Zhao et al, [2008]). […]
Figure 4 Effect of HUWE1 inhibition on growth and gene expression in epithelial and embryonic stem cells • Colony formation assays documenting growth of Ls174T cells in the presence of the indicated concentrations of HUWE1 inhibitors. […] A quantitation of N-MYC protein levels relative to Vinculin is shown below the blot (n = 3). • RQ–PCR assays documenting expression of MYC target gene expression in murine ES cells (F) and in crypt cultures of normal intestinal epithelial cells (G) upon inhibition of HUWE1. […]
HCT116, HEK293T, HeLa, HT29, ES, Phoenix, and U2OS cells were cultivated in DMEM (Sigma). […] Quantification of crystal violet staining was performed by extracting dye with 10% acetic acid and measuring absorbance at 590 nm. […]

In the next assay the target is T1, HECT-domain of HUWE1 (Homo sapiens, UniProt Q7Z6Z7).
T1 construct: 30 ng biotinylated His-HUWE1 (C-terminal ∼350 amino acids = HECT-domain); His; biotin (biotinylated)
T1 sequence (Q7Z6Z7 4038-4374 limits assumed): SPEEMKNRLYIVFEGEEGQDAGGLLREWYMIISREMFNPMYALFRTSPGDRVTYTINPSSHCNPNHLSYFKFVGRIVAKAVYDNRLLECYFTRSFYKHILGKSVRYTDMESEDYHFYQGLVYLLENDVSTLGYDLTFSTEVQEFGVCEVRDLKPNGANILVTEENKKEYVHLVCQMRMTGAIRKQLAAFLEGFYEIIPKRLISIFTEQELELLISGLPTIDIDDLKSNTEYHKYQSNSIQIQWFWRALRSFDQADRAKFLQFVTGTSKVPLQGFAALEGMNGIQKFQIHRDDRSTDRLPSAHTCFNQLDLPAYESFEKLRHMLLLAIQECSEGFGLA
Kind of assay: HUWE1 auto-ubiquitination assay (DELFIA format). The format is biochemical. The following applies: UBA1, UbcH5b, read-out: IC50 HUWE1 (in vitro auto-ubiquitination). As for the experimental part:
To identify potential inhibitors of HUWE1, we configured an in vitro assay of HUWE1 activity for high-throughput screening of small molecules, exploiting the fact that the HECT-domain of HUWE1 auto-ubiquitinates (Pandya et al, [2010]). Briefly, the HECT-domain of HUWE1 was biotin-tagged, attached to streptavidin-coated 96-well plates, and incubated with UBA1, UbcH5b, a ubiquitin-conjugating enzyme that supports HUWE1 activity in vitro (Adhikary et al, [2005]), ATP, and MYC-tagged ubiquitin. Auto-ubiquitination was detected using a europium-labeled MYC antibody and appropriate detection reagents (Fig3A). […] After hit confirmation in repeat experiments, we identified inhibitors of UBA1 or UbcH5b by a thioester assay that measures the covalent binding of UbcH5b to ubiquitin in the presence of UBA1: Compounds active in this assay were eliminated. Furthermore, dose responses were determined in both HUWE1 and NEDD4 auto-ubiquitination assays, and compounds inhibiting NEDD4 auto-ubiquitination were eliminated (Fig3B and unpublished observations). […]
A DELFIA format assay was used to measure the covalent association of ubiquitin with HUWE1 (auto-ubiquitination). […] Europium fluorescence was measured with 50 μl DELFIA enhancement solution (Perkin Elmer) in a Wallac Victor fluorescence plate reader (Perkin Elmer).

What is called IC50 is the concentration that inhibits the measured activity by half. Consider `Cc1c(C(=O)Nc2ccc(CN)cc2)ncnc1N1CCC(C#N)(c2ccccc2)CC1` [BI8622], for which the IC50 is 8400 nM in the assay on Ls174T cells and 3100 nM on HECT-domain of HUWE1.

Take `NCc1cccc(CNc2ncnc3c(N4CCN(Cc5ccccc5)CC4)ncnc23)c1` [BI8626]: the IC50 in the assay with Ls174T cells was 700 nM; on HECT-domain of HUWE1, 900 nM.
